Measured values from patent US20080089851A1, “Brown Algae Cell Lyophilisate, Method For The Obtention Thereof” (BIOTECHMARINE, priority 2005, published 2008).

Tests used:
[1] = test system: microsomes of human keratinocytes; test: Transport of glucids (glucose), direct treatment of isolated microsomes; format: biochemical; details: for Capture of [^3H]3-O-MG: Phloretin 0.25 mM
Procedure: 7.1—Assessment of the Rate of Transport of Macromolecules (Glucids, Lipids and Proteins) in a System of Isolated Microsomes. Direct Effect of the BB Product on Isolated Microsomes: The microsomes of human keratinocytes form a membrane fraction obtained by high-speed differential centrifugation of a cell homogenate. This preparation of microsomes requires the addition of exogenous cofactors such as NADPH. 7.1.1—Transport of Glucids (Glucose) The assay was performed in triplicate after the direct treatment of microsomes. • Charge 1: negative control not receiving any product. • Charge 2: positive control (0.25 mM phloretin) • Charges 3-5: treated with the investigated product (3 concentrations) • Charges 6-8: treated with 0.25 mM phloretin and with the investigated product (3 concentrations) The obtained microsomes from human keratinocytes in culture were washed 3 times with a PBS buffer without glucose then pre-incubated in 1 ml of the same buffer for 30 minutes at 37° C. Subsequently, this solution was discarded and the microsomes placed into the glucose-free PBS buffer containing 3-0-Methyl glucose (MG) and [^3H] 3-0-MG with stirring in a water-bath at 37° C. The capture of 3-0-MG is stopped by addition of 1 ml of cold PBS containing cytochalasine B. The kinetics of incubation was performed between 30 and 120 seconds. The microsomes were further rinsed 2 times with PBS, then dissolved in NaOH (1M) at 4° C., over night. The radioactivity was determined with a scintillation counter. The treatments of microsomes with the BB product alone or in the presence of phloretin were carried out at the same time as the introduction of [3H] 3-0-MG into the incubation medium. The protein assay was performed following the BRADFORD method. The increase in absorbance at 595 nm, determined with spectrophotometer, is proportional to the protein concentration.

[2] = test system: normal human keratinocytes; test: Transport of glucides (glucose), normal human keratinocytes; format: cell-based; details: for Capture of [^3H]3-O-MG: Phloretin 0.25 mM
Procedure: The obtained microsomes from human keratinocytes in culture were washed 3 times with a PBS buffer without glucose then pre-incubated in 1 ml of the same buffer for 30 minutes at 37° C. Subsequently, this solution was discarded and the microsomes placed into the glucose-free PBS buffer containing 3-0-Methyl glucose (MG) and [^3H] 3-0-MG with stirring in a water-bath at 37° C. The capture of 3-0-MG is stopped by addition of 1 ml of cold PBS containing cytochalasine B. The kinetics of incubation was performed between 30 and 120 seconds. The microsomes were further rinsed 2 times with PBS, then dissolved in NaOH (1M) at 4° C., over night. The radioactivity was determined with a scintillation counter. 7.2—Assessment of the Rate of Transport of Macromolecules at the Level of Normal Human Keratinocytes The applied method was that of explants allowing to obtain, from a biopsy of human skin, keratinocytes in primary cultures. The assays were carried out on keratinocytes between the 2nd and the 4th passage in order to ensure a reproductibility between the different experiences. The keratinocytes were divided into multiwell plates (6 wells) at a rate of 10^5 cells per well in 1 ml of culture medium […] supplemented with insulin and hydrocortisone. The cells were incubated in the presence and absence of the investigated product. 7.2.1—Transport of Glucides (Glucose) The assay was carried out in triplicate on normal human keratinocytes in culture. • Charge 1: negative control not receiving any product. • Charge 2: positive control (0.25 mM Phloretin) • Charge 3: treated receiving the investigated product • Charges 6-8: treated with 0.25 mM phloretin and the investigated product (3 concentrations) The treatment of keratinocytes with the BB product in the presence and absence of 0.25 mM phloretin was carried out for 20 minutes at 37° C. The membrane microsomes were separated by differential centrifugation. The same protocol of capture of [3H] 3-0-Methyl-Glucose was adopted for the determination of the rate of transport of glucose. (cf. 6.1.1).

[3] = test system: human keratinocytes in senescence; test: Transport of glucids (glucose), human keratinocytes in senescence; format: cell-based; details: for Capture of [^3H]3-O-MG: Phloretin 0.25 mM
Procedure: The obtained microsomes from human keratinocytes in culture were washed 3 times with a PBS buffer without glucose then pre-incubated in 1 ml of the same buffer for 30 minutes at 37° C. Subsequently, this solution was discarded and the microsomes placed into the glucose-free PBS buffer containing 3-0-Methyl glucose (MG) and [^3H] 3-0-MG with stirring in a water-bath at 37° C. The capture of 3-0-MG is stopped by addition of 1 ml of cold PBS containing cytochalasine B. The kinetics of incubation was performed between 30 and 120 seconds. The microsomes were further rinsed 2 times with PBS, then dissolved in NaOH (1M) at 4° C., over night. The radioactivity was determined with a scintillation counter. 7.3-Assessment of the Rate of Transport of Macromolecules at the Level of Human Keratinocytes in Senescence The senescence is a phenomenon of cellular aging, where the cells are arrested in the phase G1 of the cell cycle and never enter the synthesis phase leading to the cell division. Senescent cells are characterized by their slow metabolism at synthesis and transport of macromolecules levels. The cells in culture deprived of serum stop their growth, but continue to progress through the cell cycle until they reach the phase G1. The applied method allowed to obtain, from a human skin biopsy, primary cultures of keratinocytes. The assays were performed on keratinocytes, between the 8th and the 10th passage, in order to ensure the presence of senescent cells at control cells level. The keratinocytes were seeded in multiwell plates (6 wells) at a rate of 10^5 cells per well in 3 ml of culture medium […] supplemented with EGF, hydrocortisone, insulin and […]. Afterwards they are maintained for 5 days in incubator under CO2. 7.3.1-Transport of Glucids (Glucose) The assay was carried out in triplicate on human keratinocytes in senescence. • Charge 1: negative control not receiving any product. • Charge 2: positive control (0.25 mM Phloretin) • Charge 3: treated receiving the investigated product • Charges 6-8: treated with 0.25 mM phloretin and with the investigated product (3 concentrations) The treatment of keratinocytes with the BB product in the presence and absence of 0.25 mM phloretin was performed for 20 minutes at 37° C. The membrane microsomes were separated by differential centrifugation. The same protocol of capture of [3H] 3-0-Methyl-Glucose was applied to the determination of the rate of transport of glucose (cf. 6.1.1).

[4] = test system: reconstructed CORNEA Skinethic (keratinocytes of the TR 146 line); test: Mucous tolerance: cytotoxicity (MTT colour) on reconstructed CORNEA Skinethic; format: cell-based, human; parameters: key to TOXICITY: NI = not irritant; I = irritant; VI = very irritant; details: for Colour of both cultures: MTT
Procedure: 1. —Experimental Protocol
Keratinocytes of the TR 146 line, spontaneously transformed, amplified, by cell culture in a defined modified MCDB 153 medium were used.
When cultured on the interface air/liquid in a defined medium, these human keratinocytes form a multilayered epithelium without the cornea layer similar to the human cornea.
The product to be investigated, in this case the BB product according to Example 3, is applied at a rate of 30 μL onto the surface of eight equivalent cultures using a micro-pipette. These cultures are subsequently incubated at 37° C., 5% of CO2, for 10 minutes, 1 hour, 3 hours and 24 hours, at a rate of two cultures by incubation period.
Negative (buffered saline solution) and positive (SDS 0.5% and 1%) controls are prepared sterile and applied in the same way on two cultures, respectively.
These cultures are subsequently incubated at 37° C., 5% of CO2, for 1 hour and 24 hours, at a rate of two cultures by incubation period.
2. —Assessment of the Cellular Viability
The cellular viability is further measured qualitatively after labelling with a vital dye. The MTT system measures the mitochondrial dehydrogenase activity of living cells. The key component is the 3-[4,5-dimethylthiazol-2-yl]-2,5-diphenyl tetrazolium bromide or MTT.
The salt solutions buffered with MTT, in the absence of phenol red, are yellow coloured. The mitochondrial deshydrogenases of living cells cut the tetrazolium cycle, thus inducing formation of purple formazan crystals, insoluble in aqueous solutions.
The crystals formed by the viable cells are trapped in the polycarbonate filters which serve as support to epithelial cultures. The cultures turn to a uniform intense blue/purple colour when they are viable, but remain white/yellow in the case of cell mortality.
The results are compared to negative and positive control substances.
0.15 ml of culture medium containing 10% vol/vol of MTT solution are pipetted under each filter/culture support. After an incubation of 30 min at room temperature, the colour of the different cultures is observed.
Negative control cultures should show an intense blue/purple colour, proof of the viability of mucosa after being in contact for 24 hours.
Positive control cultures should show a white colour, proof of the cellular mortality as from the 1st hour of contact.

**Q.** With `O=C(CCc1ccc(O)cc1)c1c(O)cc(O)cc1O` [Phloretin, phloretin] as the compound, how does the “Capture of [^3H]3-O-MG” value ([1]; 30 s) read?
**A.** 4 nmol/mg proteins

**Q.** What about the “Capture of [^3H]3-O-MG” value ([1]; 60 s) of the same compound?
**A.** 6 nmol/mg proteins

**Q.** What about the “Capture of [^3H]3-O-MG” value ([1]; 90 s) of the same compound?
**A.** 8 nmol/mg proteins

**Q.** And the “Capture of [^3H]3-O-MG” value ([1]; 120 s)?
**A.** 8 nmol/mg proteins

**Q.** And the “rate of transport of glucose (in words)” value ([1]; phloretin 0.25 mM alone)?
**A.** strongly inhibits

**Q.** And the “Capture of [^3H]3-O-MG” value ([2]; 30 s)?
**A.** 6 nmol/mg of proteins

**Q.** And the “Capture of [^3H]3-O-MG” value ([2]; 60 s)?
**A.** 8 nmol/mg of proteins

**Q.** What about the “Capture of [^3H]3-O-MG” value ([2]; 90 s) of the same compound?
**A.** 9 nmol/mg of proteins

**Q.** What about the “Capture of [^3H]3-O-MG” value ([2]; 120 s) of the same compound?
**A.** 10 nmol/mg of proteins

**Q.** What about the “rate of transport of glucose (in words)” value ([2]; phloretin 0.25 mM alone) of the same compound?
**A.** strongly inhibits

**Q.** What about the “Capture of [^3H]3-O-MG” value ([3]; 30 s) of the same compound?
**A.** 1 nmol/mg of proteins

**Q.** What about the “Capture of [^3H]3-O-MG” value ([3]; 60 s) of the same compound?
**A.** 3 nmol/mg of proteins

**Q.** What about the “Capture of [^3H]3-O-MG” value ([3]; 90 s) of the same compound?
**A.** 5 nmol/mg of proteins

**Q.** And the “Capture of [^3H]3-O-MG” value ([3]; 120 s)?
**A.** 7 nmol/mg of proteins

**Q.** What about the “rate of transport of glucose (in words)” value ([3]; phloretin 0.25 mM alone) of the same compound?
**A.** strongly inhibits

**Q.** Which TOXICITY ([4]; SDS 0.5%) does the source give for `CCCCCCCCCCCCOS(=O)(=O)[O-].[Na+]` [SDS] here?
**A.** I

**Q.** What about the “Colour of both cultures” value ([4]; SDS 0.5%, 10 min) of the same compound?
**A.** blue

**Q.** And the “Colour of both cultures” value ([4]; SDS 0.5%, 1 h)?
**A.** white

**Q.** And the “Colour of both cultures” value ([4]; SDS 0.5%, 3 h)?
**A.** white

**Q.** What about the TOXICITY ([4]; SDS 1%) of the same compound?
**A.** VI

**Q.** And the “Colour of both cultures” value ([4]; SDS 1%, 10 min)?
**A.** white

**Q.** And the “Colour of both cultures” value ([4]; SDS 1%, 1 h)?
**A.** white
